Patent publication US20250320213A1, “Nitrogen-Containing Heterocyclic Compounds” (Pfizer Inc., priority 2024, published 2025)

Each compound was assayed against T1, STAT6 (Homo sapiens, UniProt P42226) (assay: STAT6 Reporter Luciferase Assay (IL-13 stimulated HaCaT keratinocyte NanoLuc reporter cells)). Conditions: IL-13 stimulated HaCaT STAT6 NanoLuc reporter cells; read-out: Reporter EC50.
T1 construct: stably transfected HaCaT keratinocyte cell line, which expresses NanoLuc luciferase reporter gene under the transcriptional control of the STAT6 responsive promoter; endogenous in cells; host or cells: HaCaT keratinocyte reporter cell line (stably transfected with a NanoLuc reporter)
T1 sequence (P42226 1-847): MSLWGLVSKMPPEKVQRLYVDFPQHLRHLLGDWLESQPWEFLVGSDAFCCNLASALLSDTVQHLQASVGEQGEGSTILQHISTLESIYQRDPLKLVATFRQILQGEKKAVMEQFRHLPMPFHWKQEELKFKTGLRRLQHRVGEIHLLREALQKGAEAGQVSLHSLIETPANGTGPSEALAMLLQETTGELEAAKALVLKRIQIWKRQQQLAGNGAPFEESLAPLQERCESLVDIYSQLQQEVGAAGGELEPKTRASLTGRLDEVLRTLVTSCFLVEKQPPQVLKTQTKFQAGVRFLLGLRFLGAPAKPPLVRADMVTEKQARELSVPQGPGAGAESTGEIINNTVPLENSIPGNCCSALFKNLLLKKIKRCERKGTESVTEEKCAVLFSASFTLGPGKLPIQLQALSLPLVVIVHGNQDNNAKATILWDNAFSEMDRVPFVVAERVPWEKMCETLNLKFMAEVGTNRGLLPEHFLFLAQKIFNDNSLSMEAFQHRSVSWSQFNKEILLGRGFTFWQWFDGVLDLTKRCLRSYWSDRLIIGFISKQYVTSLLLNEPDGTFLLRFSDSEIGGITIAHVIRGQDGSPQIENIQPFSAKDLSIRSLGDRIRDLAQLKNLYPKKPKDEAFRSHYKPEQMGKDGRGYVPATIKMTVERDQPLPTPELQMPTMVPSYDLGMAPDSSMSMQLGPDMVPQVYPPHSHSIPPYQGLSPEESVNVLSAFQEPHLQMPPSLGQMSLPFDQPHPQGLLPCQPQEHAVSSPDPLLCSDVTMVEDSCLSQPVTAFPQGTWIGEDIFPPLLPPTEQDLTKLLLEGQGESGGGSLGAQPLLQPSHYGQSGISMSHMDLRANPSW
Type: cell-based
Summary of the method: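 Compounds were tested as 11-point, 4-fold series in duplicate, applied for 2 h at 37 °C in low-serum (2% FBS) DMEM. The cells were a stable HaCaT line with NanoLuc under a STAT6-responsive IL-13Ra2 promoter. After 4 h with 0.12 nM IL-13, Nano-Glo luminescence was measured.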
`CC(C)n1nc(C(=O)NCc2ccc(NC(=O)N(C)C)cc2)c2c1CCN(c1ccc(C(=O)N3C[C@H]4COC[C@H]4C3)cn1)C2` [Example 289, N-(4-(3,3-dimethylureido)benzyl)-5-(5-((3aR,6aS)-hexahydro-1H-furo[3,4-c]pyrrole-5-carbonyl)pyridin-2-yl)-1-isopropyl-4,5,6,7-tetrahydro-1H-pyrazolo[4,3-c]pyridine-3-carboxamide] showed an EC50 of 312 nM. Work on `CC(C)n1nc(C(=O)NCc2ccc(NC(=O)N3CCN(C)[C@H](C)C3)c(F)c2)c2c1[C@@H](C)CN(c1ccc(C(=O)N(C)C)cc1)C2` [Example 686, (S)-5-(4-(dimethylcarbamoyl)phenyl)-N-(4-((R)-3,4-dimethylpiperazine-1-carboxamido)-3-fluorobenzyl)-1-isopropyl-7-methyl-4,5,6,7-tetrahydro-1H-pyrazolo[4,3-c]pyridine-3-carboxamide] yielded an EC50 of 1 nM. `CC(C)n1nc(C(=O)NCc2ccc(NC(=O)N(C)C)cc2)c2c1CCN(c1ccc(C(=O)N3CCC4(COC4)C3)cn1)C2` [Example 228, 5-(5-(2-oxa-6-azaspiro[3.4]octane-6-carbonyl)pyridin-2-yl)-N-(4-(3,3-dimethylureido)benzyl)-1-isopropyl-4,5,6,7-tetrahydro-1H-pyrazolo[4,3-c]pyridine-3-carboxamide] was tested, and the EC50 was 116 nM. Compound `COCC1(N)CCN(C(=O)Nc2ccc(CNC(=O)c3nn(C(C)C)c4c3CN(c3ccc(C(=O)N(C)C)cc3)C[C@@H]4C)cc2)C1` (single isomer, unassigned) [Example 672, (S)-N-(4-((R*)-3-amino-3-(methoxymethyl)pyrrolidine-1-carboxamido)benzyl)-5-(4-(dimethylcarbamoyl)phenyl)-1-isopropyl-7-methyl-4,5,6,7-tetrahydro-1H-pyrazolo[4,3-c]pyridine-3-carboxamide] has an EC50 of 1 nM. In the case of `CC(C)n1nc(C(=O)NCc2ccc(NC(=O)N(C)C)cc2)c2c1CCN(c1ccc(C(=O)N3CCC(C)(O)C3)cn1)C2` (racemic) [Example 219, rac-(R)-N-(4-(3,3-dimethylureido)benzyl)-5-(5-(3-hydroxy-3-methylpyrrolidine-1-carbonyl)pyridin-2-yl)-1-isopropyl-4,5,6,7-tetrahydro-1H-pyrazolo[4,3-c]pyridine-3-carboxamide], the EC50 is reported as 1310 nM. `CC(C)n1nc(C(=O)NCc2ccc(NC(=O)N(C)C)cc2)c2c1CCN(c1ccc(C(=O)N3CCC[C@@H]3C(N)=O)cn1)C2` [Example 218, (R)-5-(5-(2-carbamoylpyrrolidine-1-carbonyl)pyridin-2-yl)-N-(4-(3,3-dimethylureido)benzyl)-1-isopropyl-4,5,6,7-tetrahydro-1H-pyrazolo[4,3-c]pyridine-3-carboxamide] gave an EC50 of 2380 nM. Work on `Cc1nc2c(s1)CCN(C(=O)c1ccc(N3CCc4c(c(C(=O)NCc5ccc(NC(=O)N(C)C)cc5)nn4C(C)C)C3)nc1)C2` [Example 406, N-(4-(3,3-dimethylureido)benzyl)-1-isopropyl-5-(5-(2-methyl-4,5,6,7-tetrahydrothiazolo[4,5-c]pyridine-5-carbonyl)pyridin-2-yl)-4,5,6,7-tetrahydro-1H-pyrazolo[4,3-c]pyridine-3-carboxamide] yielded an EC50 of 11 nM. Compound `Cc1nn(C)c(=O)n1-c1ccc(N2Cc3c(C(=O)NCc4ccc(NC(=O)N5CCN(C)CC5)cc4)nn(C(C)C)c3[C@@H](C)C2)cc1` [Example 652, (S)-5-(4-(1,3-dimethyl-5-oxo-1,5-dihydro-4H-1,2,4-triazol-4-yl)phenyl)-1-isopropyl-7-methyl-N-(4-(4-methylpiperazine-1-carboxamido)benzyl)-4,5,6,7-tetrahydro-1H-pyrazolo[4,3-c]pyridine-3-carboxamide] has an EC50 of 5 nM. Compound `CC(C)n1nc(C(=O)NCc2ccc(NC(=O)N3CCN(C)CC3)cc2)c2c1[C@@H](C)CN(c1ccc(-c3nncn3C)cn1)C2` [Example 658, (S)-1-isopropyl-7-methyl-5-(5-(4-methyl-4H-1,2,4-triazol-3-yl)pyridin-2-yl)-N-(4-(4-methylpiperazine-1-carboxamido)benzyl)-4,5,6,7-tetrahydro-1H-pyrazolo[4,3-c]pyridine-3-carboxamide] has an EC50 of 4 nM. For `Cc1cc2n(n1)CCN(C(=O)c1ccc(N3CCc4c(c(C(=O)NCc5ccc(NC(=O)N(C)C)cc5)nn4C(C)C)C3)nc1)C2` [Example 377, N-(4-(3,3-dimethylureido)benzyl)-1-isopropyl-5-(5-(2-methyl-4,5,6,7-tetrahydropyrazolo[1,5-a]pyrazine-5-carbonyl)pyridin-2-yl)-4,5,6,7-tetrahydro-1H-pyrazolo[4,3-c]pyridine-3-carboxamide], the EC50 was 21 nM. In the case of `CC(C)n1nc(C(=O)NCc2ccc(NC(=O)N(C)C)cc2)c2c1CCN(c1ccc(C(=O)N3C[C@@H]4OCCO[C@@H]4C3)cn1)C2` [Example 239, N-(4-(3,3-dimethylureido)benzyl)-5-(5-((4aR,7aS)-hexahydro-5H-[1,4]dioxino[2,3-c]pyrrole-6-carbonyl)pyridin-2-yl)-1-isopropyl-4,5,6,7-tetrahydro-1H-pyrazolo[4,3-c]pyridine-3-carboxamide], the EC50 is reported as 236 nM. `CC(C)n1nc(C(=O)NCc2ccc(NC(=O)N(C)C)cc2)c2c1CCN(c1ccc(C(=O)N3CCc4nn(C)cc4C3)cn1)C2` [Example 364, N-(4-(3,3-dimethylureido)benzyl)-1-isopropyl-5-(5-(2-methyl-4,5,6,7-tetrahydro-2H-pyrazolo[4,3-c]pyridine-5-carbonyl)pyridin-2-yl)-4,5,6,7-tetrahydro-1H-pyrazolo[4,3-c]pyridine-3-carboxamide] was tested, and the EC50 was 20 nM. `CC(C)n1nc(C(=O)NCc2ccc(NC(=O)N(C)C)cc2)c2c1CCN(c1ccc(C(=O)N3CCn4nccc4C3)cn1)C2` [Example 425, N-(4-(3,3-dimethylureido)benzyl)-1-isopropyl-5-(5-(4,5,6,7-tetrahydropyrazolo[1,5-a]pyrazine-5-carbonyl)pyridin-2-yl)-4,5,6,7-tetrahydro-1H-pyrazolo[4,3-c]pyridine-3-carboxamide] showed an EC50 of 34 nM. For `CC(C)n1nc(C(=O)NCc2ccc(NC(=O)N(C)C)cc2)c2c1CCN(c1ccc(C(=O)N3CCc4nocc4C3)cn1)C2` [Example 383, N-(4-(3,3-dimethylureido)benzyl)-1-isopropyl-5-(5-(4,5,6,7-tetrahydroisoxazolo[4,3-c]pyridine-5-carbonyl)pyridin-2-yl)-4,5,6,7-tetrahydro-1H-pyrazolo[4,3-c]pyridine-3-carboxamide], the EC50 was 49 nM. In the case of `CC(C)n1nc(C(=O)NCc2ccc(NC(=O)N(C)C)cc2)c2c1CCN(c1ccc(C(=O)N3CC4(COCC(=O)N4)C3)cn1)C2` [Example 288, N-(4-(3,3-dimethylureido)benzyl)-1-isopropyl-5-(5-(6-oxo-8-oxa-2,5-diazaspiro[3.5]nonane-2-carbonyl)pyridin-2-yl)-4,5,6,7-tetrahydro-1H-pyrazolo[4,3-c]pyridine-3-carboxamide], the EC50 is reported as 1640 nM. In the case of `CC(C)n1nc(C(=O)NCc2ccc(NC(=O)N(C)C)cc2)c2c1CCN(c1ccc(C(=O)N3CCc4ncsc4C3)cn1)C2` [Example 374, N-(4-(3,3-dimethylureido)benzyl)-1-isopropyl-5-(5-(4,5,6,7-tetrahydrothiazolo[5,4-c]pyridine-5-carbonyl)pyridin-2-yl)-4,5,6,7-tetrahydro-1H-pyrazolo[4,3-c]pyridine-3-carboxamide], the EC50 is reported as 14 nM. `CC(C)n1nc(C(=O)NCc2ccc(NC(=O)N(C)C)cc2)c2c1[C@@H](C)CN(c1ccc(C(=O)N(C)C[C@H]3[C@@H]4CN(C)C[C@@H]43)cc1)C2` [Example 661, (S)-N-(4-(3,3-dimethylureido)benzyl)-1-isopropyl-7-methyl-5-(4-(methyl(((1R,5S,6r)-3-methyl-3-azabicyclo[3.1.0]hexan-6-yl)methyl)carbamoyl)phenyl)-4,5,6,7-tetrahydro-1H-pyrazolo[4,3-c]pyridine-3-carboxamide] gave an EC50 of 5 nM. Work on `CC(C)n1nc(C(=O)NCc2ccc(NC(=O)N(C)C)cc2)c2c1CCN(c1ccc(C(=O)N3Cc4ncsc4C3)cn1)C2` [Example 402, 5-(5-(5,6-dihydro-4H-pyrrolo[3,4-d]thiazole-5-carbonyl)pyridin-2-yl)-N-(4-(3,3-dimethylureido)benzyl)-1-isopropyl-4,5,6,7-tetrahydro-1H-pyrazolo[4,3-c]pyridine-3-carboxamide] yielded an EC50 of 3 nM. Compound `CCn1nc(C(=O)NCc2ccc(NC(=O)N3CCN(C)CC3)cc2)c2c1C(C(F)(F)F)CN(c1ccc(C(=O)N(C)C)cn1)C2` (single isomer, unassigned) [Example 694, rel-(R or S)-5-(5-(dimethylcarbamoyl)pyridin-2-yl)-1-ethyl-N-(4-(4-methylpiperazine-1-carboxamido)benzyl)-7-(trifluoromethyl)-4,5,6,7-tetrahydro-1H-pyrazolo[4,3-c]pyridine-3-carboxamide] has an EC50 of 0.3 nM.
